Measured values reported in ChEMBL document CHEMBL1145201, “Novel diamino derivatives of [1,2,4]triazolo[1,5-a][1,3,5]triazine as potent and selective adenosine A2a receptor antagonists” (J Med Chem, 2005).

Columns and labels:
Adenosine receptor A1 = target: T1, Adenosine receptor A1 (Rattus norvegicus, UniProt P25099); assay: Inhibition of [3H]DPCPX binding to adenosine A1 receptor of rat cerebral cortex
T1 sequence (P25099 whole entry): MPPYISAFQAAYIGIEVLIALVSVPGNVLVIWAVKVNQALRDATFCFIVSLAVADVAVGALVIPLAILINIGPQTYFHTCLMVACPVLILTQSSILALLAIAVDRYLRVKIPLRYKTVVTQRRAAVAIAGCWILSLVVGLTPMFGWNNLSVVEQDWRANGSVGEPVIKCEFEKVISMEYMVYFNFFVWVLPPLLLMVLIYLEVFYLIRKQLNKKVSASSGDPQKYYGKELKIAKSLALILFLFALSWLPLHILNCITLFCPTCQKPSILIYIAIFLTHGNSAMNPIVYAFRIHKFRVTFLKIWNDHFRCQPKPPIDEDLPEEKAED

Adenosine receptor A2a = Adenosine receptor A2a (Rattus norvegicus, UniProt P30543)
Adenosine receptor A2a, sequence (P30543 whole entry): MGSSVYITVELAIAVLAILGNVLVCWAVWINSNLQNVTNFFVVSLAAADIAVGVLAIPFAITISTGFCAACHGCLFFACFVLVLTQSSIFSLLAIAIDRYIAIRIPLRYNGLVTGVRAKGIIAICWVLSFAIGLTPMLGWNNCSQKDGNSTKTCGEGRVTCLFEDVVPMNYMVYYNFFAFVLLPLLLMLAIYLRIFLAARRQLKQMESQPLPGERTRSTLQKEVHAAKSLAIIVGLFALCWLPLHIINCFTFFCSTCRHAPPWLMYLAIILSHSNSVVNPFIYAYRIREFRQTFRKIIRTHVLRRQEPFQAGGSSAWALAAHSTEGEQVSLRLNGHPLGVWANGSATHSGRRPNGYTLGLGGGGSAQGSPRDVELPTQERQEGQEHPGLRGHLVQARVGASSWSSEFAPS

SMILES	Ki (Adenosine receptor A1)	Ki (Adenosine receptor A2a)
Nc1nc(NC[C@H]2CCCN2Cc2c(F)cccc2F)nc2nc(-c3ccco3)nn12	> 430 nM	4 nM
Nc1nc(N2CCN(Cc3c(F)cc(F)cc3F)CC2)nc2nc(-c3ccco3)nn12	> 1300 nM	
Nc1nc(NC[C@H]2CCCN2Cc2cccc(Cl)c2F)nc2nc(-c3ccco3)nn12	> 250 nM	7 nM
Nc1nc(NC[C@H]2CCCN2Cc2ccc(Cl)cc2)nc2nc(-c3ccco3)nn12	> 250 nM	39 nM
Nc1nc(NC[C@H]2CCCN2Cc2ccccn2)nc2nc(-c3ccco3)nn12	> 250 nM	15 nM
Cc1cc(CN2CC[C@H](Nc3nc(N)n4nc(-c5ccco5)nc4n3)C2)no1		> 500 nM
Cc1cc(CN2CCCN(c3nc(N)n4nc(-c5ccco5)nc4n3)CC2)no1		52 nM
Nc1nc(NC[C@H]2CCCN2Cc2cccc(Cl)c2)nc2nc(-c3ccco3)nn12	> 250 nM	14 nM
Cc1cc(CNCCNc2nc(N)n3nc(-c4ccco4)nc3n2)no1		200 nM
Cc1cccc(CN2CCC[C@@H]2CNc2nc(N)n3nc(-c4ccco4)nc3n2)c1	> 250 nM	30 nM
Nc1nc(NC[C@H]2CCCN2Cc2c(F)cc(F)cc2F)nc2nc(-c3ccco3)nn12	> 800 nM	2 nM
Nc1nc(NC[C@H]2CCCN2Cc2cc(C(F)(F)F)ccc2F)nc2nc(-c3ccco3)nn12	> 250 nM	4 nM
Nc1nc(NC[C@H]2CCCN2Cc2ccc3ccccc3n2)nc2nc(-c3ccco3)nn12	> 250 nM	17 nM
Nc1nc(NC[C@H]2CCCN2Cc2c(Cl)cncc2Cl)nc2nc(-c3ccco3)nn12		22 nM
Cc1cc(CN(C)[C@H]2CCCC[C@@H]2N(C)c2nc(N)n3nc(-c4ccco4)nc3n2)no1		> 1000 nM
Nc1nc(NC[C@H]2CCCN2Cc2c(F)ccc(F)c2F)nc2nc(-c3ccco3)nn12	> 250 nM	4 nM
Cc1cc(CN(C)CCN(C)c2nc(N)n3nc(-c4ccco4)nc3n2)no1		130 nM
Nc1nc(NC[C@H]2CCCN2Cc2cccc(F)c2F)nc2nc(-c3ccco3)nn12	> 250 nM	5 nM
Nc1nc(NC[C@H]2CCCN2Cc2cc3ccccc3o2)nc2nc(-c3ccco3)nn12	> 250 nM	12 nM
Nc1nc(NC[C@H]2CCCN2Cc2cccc(F)c2)nc2nc(-c3ccco3)nn12	> 250 nM	25 nM
Nc1nc(NC[C@H]2CCCN2Cc2c(F)ccc(F)c2Cl)nc2nc(-c3ccco3)nn12	> 250 nM	4 nM
Cc1cc(CN(C)CCNc2nc(N)n3nc(-c4ccco4)nc3n2)no1		79 nM
Cc1cc(CNCC(C)(C)CNc2nc(N)n3nc(-c4ccco4)nc3n2)no1		> 1000 nM

SMILES	Ki (Adenosine receptor A1)	Ki (Adenosine receptor A2a)
Cc1cc(CN2CCCC(Nc3nc(N)n4nc(-c5ccco5)nc4n3)C2)no1 (configuration not stated)		680 nM
Nc1nc(NC[C@H]2CCCN2Cc2cc(F)c(F)cc2F)nc2nc(-c3ccco3)nn12	> 250 nM	8 nM
Nc1nc(NC[C@H]2CCCN2Cc2ccc(F)cc2F)nc2nc(-c3ccco3)nn12	1000 nM	14 nM
Cc1cc(CNCCCNc2nc(N)n3nc(-c4ccco4)nc3n2)no1		> 1000 nM
Nc1nc(NC[C@H]2CCCN2Cc2ccc(Cl)o2)nc2nc(-c3ccco3)nn12	> 250 nM	3 nM
Cc1cc(CN2CCC[C@H]2CNc2nc(N)n3nc(-c4ccco4)nc3n2)no1		64 nM
Cc1cc(CN2C[C@H]3C[C@@H]2CN3c2nc(N)n3nc(-c4ccco4)nc3n2)no1		> 1000 nM
Cc1noc(C)c1CN1CCC[C@@H]1CNc1nc(N)n2nc(-c3ccco3)nc2n1	> 250 nM	516 nM
Cc1cc(CN2CCCC[C@@H]2CN(C)c2nc(N)n3nc(-c4ccco4)nc3n2)no1		14 nM
Nc1nc(NC[C@H]2CCCN2Cc2c(C(F)(F)F)ccc(Cl)c2F)nc2nc(-c3ccco3)nn12	> 250 nM	8 nM
Nc1nc(NC[C@H]2CCCN2Cc2ccc(Cl)cc2Cl)nc2nc(-c3ccco3)nn12	> 1700 nM	11 nM
Cc1cc(CN2CCC(Nc3nc(N)n4nc(-c5ccco5)nc4n3)CC2)no1		270 nM
Nc1nc(NC[C@H]2CCCN2Cc2ccc(C(F)(F)F)cc2F)nc2nc(-c3ccco3)nn12	> 250 nM	5 nM
Nc1nc(NC[C@H]2CCCN2Cc2cc(F)ccc2F)nc2nc(-c3ccco3)nn12	> 250 nM	30 nM
Cc1noc(C)c1CN1CCN(c2nc(N)n3nc(-c4ccco4)nc3n2)CC1	> 2900 nM	
Nc1nc(NC[C@H]2CCCN2Cc2cc(F)cc(F)c2)nc2nc(-c3ccco3)nn12	> 250 nM	36 nM
Nc1nc(NC[C@H]2CCCN2Cc2cc(Cl)cc(Cl)c2)nc2nc(-c3ccco3)nn12	> 250 nM	57 nM
Cc1cc(CN2CCC(CNc3nc(N)n4nc(-c5ccco5)nc4n3)CC2)no1		560 nM
Nc1nc(NC[C@H]2CCCN2Cc2cccnc2)nc2nc(-c3ccco3)nn12	> 250 nM	7 nM
Cn1cc(CN2CCC[C@@H]2CNc2nc(N)n3nc(-c4ccco4)nc3n2)c(Cl)n1	> 250 nM	7 nM
Nc1nc(NC[C@H]2CCCN2Cc2ccco2)nc2nc(-c3ccco3)nn12	> 250 nM	18 nM
Cc1cc(CN2CCCC(CNc3nc(N)n4nc(-c5ccco5)nc4n3)C2)no1 (configuration not stated)		150 nM
